From patent US6407096B1, “Benzene fused heterocyclic derivatives having thromboxane A2 receptor antagonistic activity and prostaglandin I2 Agonistic activity and application thereof” (Toray Industries, Inc., priority 1998, dated 2002) come the findings set out here.

Molecules are shown by their SMILES.

Data set [1] has as its system platelet-rich plasma (PRP), platelet aggregation induced by TXA2 agonist U-46619. The data set can be described thus: Platelet aggregation inhibiting action 1 (U-46619-induced aggregation in PRP). The format is cell-based. The conditions noted are these: human PRP, aggregation induced by U-46619 (final 1 to 4 μM), compound added 1 minute before. The procedure:
The blood collected from the human medial cubital vein was centrifuged at 800 rpm for 10 minutes, and the upper portion was collected as platelet-rich plasma (PRP). PRP was dispensed to small test tubes, and TXA2 agonist U-46619 was added thereto (the final concentration 1 to 4 μM) to induce platelet aggregation. The degree of platelet aggregation was measured as a change in turbidity by a platelet aggregation measuring device (Hematracer 1, Nikko Bioscience). Each compound was added 1 minute before the addition of U-46619, and a concentration at which aggregation was 50% inhibited was calculated as a IC50 value.

Data set [2] deals with platelet-rich plasma (PRP), platelet aggregation induced by ADP. The data set can be described thus: Platelet aggregation inhibiting action 2 (ADP-induced aggregation in PRP). It is filed as cell-based. The conditions noted are these: human PRP, aggregation induced by ADP (final 1 to 10 μM), compound added 1 minute before. The procedure: The blood collected from the human medial cubital vein was centrifuged 800 rpm for 10 minutes, and the upper portion was collected as platelet-rich plasma (PRP). PRP was dispensed to small test tubes, and ADP was added thereto (the final concentration 1 to 10 μM) to induce platelet aggregation. The degree of platelet aggregation was measured as a change in turbidity by a platelet aggregation measuring device (Hematracer 1, Nikko Bioscience). Each compound was added 1 minute before the addition of ADP, and a concentration at which aggregation was 50% inhibited was calculated as IC50 value.

The next data set concerns the target T1, TXA2 receptor (Homo sapiens, UniProt P21731).
T1 construct: The finally obtained sediment was used as a platelet membrane fraction; from tissue; host or cells: human platelets (membrane fraction from venous blood)
T1 sequence (P21731 1-343): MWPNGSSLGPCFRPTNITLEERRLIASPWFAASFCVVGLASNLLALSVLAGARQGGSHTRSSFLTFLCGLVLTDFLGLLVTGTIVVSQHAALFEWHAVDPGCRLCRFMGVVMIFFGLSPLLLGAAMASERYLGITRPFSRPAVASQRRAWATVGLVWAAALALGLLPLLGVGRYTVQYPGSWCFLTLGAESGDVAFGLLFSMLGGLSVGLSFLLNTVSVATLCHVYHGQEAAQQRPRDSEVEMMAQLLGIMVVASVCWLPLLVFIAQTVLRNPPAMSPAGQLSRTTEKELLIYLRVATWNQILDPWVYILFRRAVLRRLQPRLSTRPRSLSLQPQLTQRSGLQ
The data set can be described thus: TXA2 receptor binding test ([3H]SQ29548, platelet membrane fraction). The conditions noted are these: [3H]SQ29548 10 nM, 25° C., 30 minutes, read-out: TXA2 receptor affinity Ki. How it is done: The blood collected from the human antebrachial vein and 1/10 volume of ACD solution (85 mM trisodium citrate, 65 mM citric acid, 2% glucose) were mixed, and 8 ml of the mixture was dispensed to each of Spitz tubes. The platelet-rich plasma obtained by centrifugation at room temperature and 200×g for 10 minutes was further centrifuged at 1000×g for 15 minutes to obtain platelets. The thus-obtained platelets were centrifugally washed with a cleaning buffer (115 mM sodium chloride, 4.3 mM potassium dihydrogen phosphate, 5.5 mM glucose, 1 mM disodium EDTA, 10 μM […], pH 6.5), and 1 ml of a dissolution buffer (10 mM tris(hydroxymethyl)aminomethane, 5 mM magnesium chloride, 2 mM disodium EDTA, pH 7.4) was added to-the platelets, followed by three times of freezing in liquid nitrogen and melting at room temperature to crush the platelets. The crushed platelets were cleaned by three times of ultracentrifugation (40000×g, 20 minutes each) using […] ice-cold tris-hydrochloric acid buffer. The finally obtained sediment was used as a platelet membrane fraction.
As a TXA2 receptor ligand, tritium-labeled SQ29548 ([^3H]SQ29548) was used. As a solvent for receptor binding reaction, a 50 mM tris-hydrochloric acid buffer ([…] magnesium chloride, pH 7.4) was used. A saturation test was conducted by reaction of [^3H]SQ29548 (100 μl) at a final concentration of 3 to 100 nM and 0.1 mg protein/ml of platelet membrane fraction suspension (100 μl) at 25° C. for 30 minutes under shaking. […] Then, radioactivity was measured by a scintillation counter. Nonspecific binding to a substance other than the receptor was determined by reaction in the presence of SQ29548 at a final concentration of […]. In the competitive experiment, IC50 value and Hill coefficient of each of the test compounds were determined by pseudo-Hill plots, and the receptor dissociation constant (Ki value) was determined from the IC50 value and the receptor dissociation constant (Kd value) of [^3H]SQ29548, which was obtained by saturation experiment, according to the following equation: […]

A further data set deals with T2, PGI2 receptor (Homo sapiens, UniProt P43119).
T2 construct: 0.1 mg protein/ml of platelet membrane fraction suspension (100 μl) at 4° C. for 60 minutes; from tissue; host or cells: platelets (membrane fraction)
The data set can be described thus: PGI2 receptor binding experiment (tritium-labeled compound A, platelet membrane fraction). The conditions noted are these: tritium-labeled compound A 10 nM, 4° C., 60 minutes, read-out: PGI2 receptor affinity Ki. The procedure: As a PGI2 receptor ligand, tritium-labeled (1R, 2R, 3aS, 8bS)-2,3,3a,8b-tetrahydro-2-hydroxy-1-[(E)-(3S, 4S)-3-hydroxy-4-methyl-1-octene-6-ynyl]-1H-cyclopenta [b]benzofuran-4-butanoic acid (compound A) was used. A saturation test was conducted by reaction of compound A (100 μl) at a final concentration of 3 to 100 nM and 0.1 mg protein/ml of platelet membrane fraction suspension (100 μl) at 4° C. for 60 minutes under shaking. Competitive experiment was carried out by reaction of a mixed solution (100 μl) of a test compound dissolved in an appropriate solvent and diluted and compound A at a final concentration of 10 nM, and 0.1 mg protein/ml of platelet membrane fraction suspension (100 μl) at 4° C. for 60 minutes under shaking. After the completion of reaction, the membrane fraction was recovered on a glass filter by a cell harvester, and washed with an ice-cold buffer. Then, radioactivity was measured by a scintillation counter. Nonspecific binding to a substance other than the receptor was determined by reaction in the presence of beraprost sodium at a final concentration of […]. In the competitive experiment, IC50 value and Hill coefficient of each of test compounds were determined by pseudo-Hill plots, and the receptor dissociation constant (Ki value) was determined from the IC50 value and the receptor dissociation constant (Kd value) of compound A, which was obtained by saturation experiment, according to the following equation:
Ki value=IC50 value/[1+(radioactive ligand concentration/Kd value)]

T2 sequence (P43119 whole entry): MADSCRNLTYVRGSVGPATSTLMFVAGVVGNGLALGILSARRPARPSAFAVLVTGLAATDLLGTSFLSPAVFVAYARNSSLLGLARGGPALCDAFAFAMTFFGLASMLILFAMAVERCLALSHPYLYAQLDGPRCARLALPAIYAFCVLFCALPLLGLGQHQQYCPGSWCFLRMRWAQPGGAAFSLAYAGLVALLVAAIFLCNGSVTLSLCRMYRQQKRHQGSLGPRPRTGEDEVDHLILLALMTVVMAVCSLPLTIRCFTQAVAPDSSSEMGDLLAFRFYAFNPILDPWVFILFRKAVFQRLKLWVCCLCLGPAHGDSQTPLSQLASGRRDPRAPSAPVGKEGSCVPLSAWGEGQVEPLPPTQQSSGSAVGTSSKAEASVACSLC

By melting point is commonly meant the temperature of the solid-liquid transition. For the compound `COC(=O)COc1cccc2c1OCCN2CCSC(c1ccccc1)c1ccccc1`, the melting point was in the range of 94 to 95 °C.
The compound `CC(SCCN1CCOc2c(OCC(=O)[O-])cccc21)(c1ccccc1)c1ccccc1.[Na+]` gave a melting point of 110 °C.
In the case of `COC(=O)COc1cccc2c1OCCN2CCSC(C)(c1ccccc1)c1ccccc1` [Example 2, Methyl (4-(2-(1,1-diphenylethylthio)ethyl)-3,4-dihydro-2H-1,4-benzoxazin-8-yloxy)acetate], the melting point was 101 °C.
For `COC(=O)COc1cccc2c1OCC(=O)N2CC(=O)NC(c1ccccc1)c1ccccc1` [Example 12, Methyl (4-((diphenylmethylcarbamoyl)methyl)-3-oxo-3,4-dihydro-2H-1,4-benzoxazin-8-yloxy)acetate], the melting point is 183 to 184 °C.
Usually IC50 stands for the midpoint of a concentration-inhibition curve. `O=C(O)COc1cccc2c1OCCN2CCSC(c1ccccc1)c1ccccc1` [Example 20, (4-(2-(diphenylmethylthio)ethyl)-3,4-dihydro-2H-1,4-benzoxazin-8-yloxy)acetic acid] gave a melting point of 172.5 °C. For the same compound, the IC50 in data set [1] was found to be 1300 nM. For the same compound, half-maximal inhibition in data set [2] (IC50) required 2000 nM.
The term Ki denotes a measure of affinity in units of concentration, obtained from inhibition or displacement. As to `CC(SCCN1CCOc2c(OCC(=O)O)cccc21)(c1ccccc1)c1ccccc1` [Example 21, (4-(2-(1,1-diphenylethylthio)ethyl)-3,4-dihydro-2H-1,4-benzoxazin-8-yloxy)acetic acid], the melting point was in the range of 161 to 161.5 °C. In data set [1], this compound displayed an IC50 of 550 nM. The compound further showed an IC50 in data set [2] of 1800 nM. Also, the Ki on TXA2 receptor turned out to be 50 nM. In addition, the Ki on PGI2 receptor stood at 430 nM.
`O=C(O)COc1cccc2c1OCCN2CCSC(c1ccccc1)(c1ccccc1)C(F)(F)F` [Example 22, (4-(2-(1,1-diphenyl-2,2,2-trifluoroethylthio)ethyl)-3,4-dihydro-2H-1,4-benzoxazin-8-yloxy)acetic acid]: the melting point is 140 to 140.5 °C.
In turn, `CC(SCCN1CCOc2c(OCC(=O)O)cccc21)(c1ccc(F)cc1)c1ccc(F)cc1` [Example 23, (4-(2-(1,1-bis-(4-fluorophenyl)ethylthio)-ethyl)-3,4-dihydro-2H-1,4-benzoxazin-8-yloxy)acetic acid] yielded a melting point of 142 to 143 °C.
Compound `CC(C)(SCCN1CCOc2c(OCC(=O)O)cccc21)c1ccccc1` [Example 24, (4-(2-(1-methyl-1-phenylethylthio)ethyl)-3,4-dihydro-2H-1,4-benzoxazin-8-yloxy)acetic acid] gave a melting point of 114 °C.
The compound `O=C(O)COc1cccc2c1OCCN2CCSCc1ccccc1` [Example 25, (4-(2-(benzylthio)ethyl)-3,4-dihydro-2H-1,4-benzoxazin-8-yloxy) acetic acid] yielded a melting point of 127 to 131 °C.
The same measure, in the same setting: the same measure for `CC(CSCCN1CCOc2c(OCC(=O)O)cccc21)(c1ccccc1)c1ccccc1` [Example 26, (4-(2-(2,2-diphenylpropylthio)ethyl)-3,4-dihydro-2H-1,4-benzoxazin-8-yloxy)acetic acid]: 138 to 139 °C; for `CC(SCCN1CCOc2c(OCC(=O)O)cccc21)(c1ccsc1)c1ccsc1` [Example 27]: 149 °C.
On to `O=C(O)COc1cccc2c1OCCN2CCOC(c1ccccc1)c1ccccc1` [Example 28, (4-(2-(diphenylmethoxy)ethyl)-3,4-dihydro-2H-1,4-benzoxazin-8-yloxy)acetic acid], for which the melting point is 112 to 113 °C. The compound further had an IC50 in data set [1] of 5700 nM. The compound further gave an IC50 in data set [2] of 16000 nM.
`CC(OCCN1CCOc2c(OCC(=O)O)cccc21)(c1ccccc1)c1ccccc1` [Example 29, (4-(2-(1,1-diphenylethoxy)ethyl)-3,4-dihydro-2H-1,4-benzoxazin-8-yloxy)acetic acid] had a melting point of 108 °C. Moreover, the IC50 in data set [1] amounted to 5500 nM. The IC50 in data set [2] was 16000 nM.
`CC(SCCN1C(=O)COc2c(OCC(=O)O)cccc21)(c1ccccc1)c1ccccc1` [Example 31, (4-(2-(1,1-diphenylethylthio)ethyl)-3-oxo-3,4-dihydro-2H-1,4-benzoxazin-8-yloxy)acetic acid] came in with a melting point of 106 °C.
`O=C(O)COc1cccc2c1OCC(=O)N2CC(=O)NC(c1ccccc1)c1ccccc1` [Example 32, (4-((diphenylmethylcarbamoyl)methyl)-3-oxo-3,4-dihydro-2H-1,4-benzoxazin-8-yloxy)acetic acid] showed a melting point of 232 to 234 °C.
In the case of `CC(SCCN1C(=O)COc2c(CCC(=O)O)cccc21)(c1ccccc1)c1ccccc1` [Example 33, 3-(4-(2-(1,1-diphenylethylthio)ethyl)-3-oxo-3,4-dihydro-2H-1,4-benzoxazin-8-yl)propionic acid], the melting point stood at 110.1 °C.
The compound `CC(SCCN1CCCc2c(OCC(=O)O)cccc21)(c1ccccc1)c1ccccc1` [Example 34, (1-(2-(1,1-diphenylethylthio)ethyl)-1,2,3,4-tetrahydroquinolin-5-yloxy)acetic acid] displayed a melting point of 150.5 to 152 °C. Besides, the IC50 in data set [1] is 590 nM. This compound also gave an IC50 in data set [2] of 1300 nM. For the same compound, at TXA2 receptor, the Ki amounted to 120 nM. Besides, at PGI2 receptor, the Ki was found to be 520 nM.
`CC(SCCC1COc2c(OCC(=O)O)cccc21)(c1ccccc1)c1ccccc1` (centres unmarked) [Example 37, (3-(2-(1,1-diphenylethylthio)ethyl)-2,3-dihydrobenzofuran-7-yloxy)acetic acid]: the melting point is 65 to 67 °C. In addition, the IC50 in data set [1] worked out at 490 nM. The IC50 in data set [2] worked out at 1800 nM.
